In ChEMBL document CHEMBL1275492, “In vitro activity of ceftobiprole against pathogens from two phase 3 clinical trials of complicated skin and skin structure infections” (2008):
In brackets after ≈: the same amount, converted by molar mass.

How the values were obtained:
Format in all cases: functional
Streptococcus pyogenes = test: Antibacterial activity against Streptococcus pyogenes obtained from complicated skin and skin structure infections by agar dilution method
[1] = Antibacterial activity against Streptococcus sp. 'group G' obtained from complicated skin and skin structure infections by agar dilution method
Streptococcus mitis = test: Antibacterial activity against Streptococcus mitis obtained from complicated skin and skin structure infections by agar dilution method
Enterococcus faecium = test: Antibacterial activity against Enterococcus faecium obtained from complicated skin and skin structure infections by agar dilution method
Micrococcus = test: Antibacterial activity against Micrococcus spp. obtained from complicated skin and skin structure infections by agar dilution method
Staphylococcus warneri = test: Antibacterial activity against coagulase-negative Staphylococcus warneri obtained from complicated skin and skin structure infections by agar dilution method
Gemella = test: Antibacterial activity against Gemella spp. obtained from complicated skin and skin structure infections by agar dilution method
Gemella morbillorum = test: Antibacterial activity against Gemella morbillorum obtained from complicated skin and skin structure infections […]
Streptococcus agalactiae = test: Antibacterial activity against Streptococcus agalactiae obtained from complicated skin and skin structure infections by agar dilution method
[2] = test system: Staphylococcus intermedius; test: Antibacterial activity against Staphylococcus intermedius obtained from complicated skin and skin structure infections by agar dilution method
Staphylococcus = test: Antibacterial activity against methicillin-susceptible, coagulase-negative Staphylococcus obtained from complicated skin and skin structure infections by agar dilution method
Staphylococcus capitis = test: Antibacterial activity against coagulase-negative Staphylococcus capitis obtained from complicated skin and skin structure infections by agar dilution method
Staphylococcus hominis = test: Antibacterial activity against coagulase-negative Staphylococcus hominis obtained from complicated skin and skin structure infections by agar dilution method
Staphylococcus aureus [3] = test: Antibacterial activity against methicillin susceptible Staphylococcus aureus obtained from complicated skin and skin structure infections by agar dilution method
Bacillus = test: Antibacterial activity against Bacillus spp. obtained from complicated skin and skin structure infections by agar dilution method
[4] = test system: Staphylococcus epidermidis; test: Antibacterial activity against coagulase-negative Staphylococcus epidermidis obtained from complicated skin and skin structure infections by agar dilution method
[5] = test system: Staphylococcus haemolyticus; test: Antibacterial activity against coagulase-negative Staphylococcus haemolyticus obtained from complicated skin and skin structure infections by agar dilution method
[6] = Antibacterial activity against Streptococcus sp. 'group C' obtained from complicated skin and skin structure infections by agar dilution method
[7] = test system: Streptococcus constellatus; test: Antibacterial activity against Streptococcus constellatus obtained from complicated skin and skin structure infections by agar dilution method
[8] = test system: Staphylococcus saprophyticus; test: Antibacterial activity against coagulase-negative Staphylococcus saprophyticus obtained from complicated skin and skin structure infections by agar dilution method
Lactococcus lactis = test: Antibacterial activity against Lactococcus lactis obtained from complicated skin and skin structure infections by agar dilution method
[9] = test system: Staphylococcus lugdunensis; test: Antibacterial activity against methicillin-resistant, oxacillin-susceptible, coagulase-negative, mecA-positive Staphylococcus lugdunensis obtained from complicated skin and skin structure infections by agar dilution method
Mammaliicoccus sciuri = test: Antibacterial activity against coagulase-negative Staphylococcus sciuri obtained from complicated skin and skin structure infections by agar dilution method
[10] = test system: Staphylococcus lugdunensis; test: Antibacterial activity against coagulase-negative Staphylococcus lugdunensis obtained from complicated skin and skin structure infections by agar dilution method
Staphylococcus aureus [11] = test: Antibacterial activity against methicillin resistant Staphylococcus aureus obtained from complicated skin and skin structure infections by agar dilution method
Aerococcus viridans = test: Antibacterial activity against Aerococcus viridans obtained from complicated skin and skin structure infections by agar dilution method
Staphylococcus cohnii = test: Antibacterial activity against coagulase-negative Staphylococcus cohnii obtained from complicated skin and skin structure infections by agar dilution method
Enterococcus faecalis = test: Antibacterial activity against Enterococcus faecalis obtained from complicated skin and skin structure infections by agar dilution method

CCC[C@@H]1C[C@@H](C(=O)N[C@@H]([C@H]2O[C@H](SC)[C@H](O)[C@@H](O)[C@H]2O)[C@H](C)Cl)N(C)C1 [CLINDAMYCIN]
MIC50 (Streptococcus pyogenes): 0.06 µg/mL (≈ 0.141 µM)
MIC90 (Streptococcus pyogenes): 0.06 µg/mL (≈ 0.141 µM)
MIC50 [1]: 0.06 µg/mL (≈ 0.141 µM)
MIC90 [1]: 0.06 µg/mL (≈ 0.141 µM)
MIC50 (Streptococcus mitis): 2 µg/mL (≈ 4.71 µM)
MIC90 (Streptococcus mitis): 4 µg/mL (≈ 9.41 µM)
MIC (Enterococcus faecium): ≤ 0.06 µg/mL
MIC50 (Enterococcus faecium): 0.06 µg/mL (≈ 0.141 µM)
MIC50 (Micrococcus): 1 µg/mL (≈ 2.35 µM)
MIC90 (Micrococcus): 4 µg/mL (≈ 9.41 µM)
MIC50 (Staphylococcus warneri): 0.06 µg/mL (≈ 0.141 µM)
MIC90 (Staphylococcus warneri): 1 µg/mL (≈ 2.35 µM)
MIC50 (Gemella): 1 µg/mL (≈ 2.35 µM)
MIC90 (Gemella): 4 µg/mL (≈ 9.41 µM)
MIC50 (Gemella morbillorum): 1 µg/mL (≈ 2.35 µM)
MIC90 (Gemella morbillorum): 4 µg/mL (≈ 9.41 µM)
MIC50 (Streptococcus agalactiae): 0.06 µg/mL (≈ 0.141 µM)
MIC90 (Streptococcus agalactiae): > 16 µg/mL
MIC50 [2]: 2 µg/mL (≈ 4.71 µM)
MIC90 [2]: 4 µg/mL (≈ 9.41 µM)
MIC50 (Staphylococcus): ≤ 0.06 µg/mL
MIC90 (Staphylococcus): 0.12 µg/mL (≈ 0.282 µM)
MIC50 (Staphylococcus capitis): 0.06 µg/mL (≈ 0.141 µM)
MIC90 (Staphylococcus capitis): 1 µg/mL (≈ 2.35 µM)
MIC50 (Staphylococcus hominis): 0.06 µg/mL (≈ 0.141 µM)
MIC90 (Staphylococcus hominis): 1 µg/mL (≈ 2.35 µM)
MIC50 (Staphylococcus aureus [3]): 0.12 µg/mL (≈ 0.282 µM)
MIC90 (Staphylococcus aureus [3]): 0.12 µg/mL (≈ 0.282 µM)
MIC50 (Bacillus): 1 µg/mL (≈ 2.35 µM)
MIC90 (Bacillus): 4 µg/mL (≈ 9.41 µM)
MIC50 [4]: 0.06 µg/mL (≈ 0.141 µM)
MIC90 [4]: 1 µg/mL (≈ 2.35 µM)
MIC50 [5]: 0.06 µg/mL (≈ 0.141 µM)
MIC90 [5]: 1 µg/mL (≈ 2.35 µM)
MIC50 [6]: ≤ 0.06 µg/mL
MIC90 [6]: 0.25 µg/mL (≈ 0.588 µM)
MIC [7]: ≤ 0.06 µg/mL
MIC50 [7]: ≤ 0.06 µg/mL
MIC90 [7]: 0.06 µg/mL (≈ 0.141 µM)
MIC50 [8]: 0.06 µg/mL (≈ 0.141 µM)
MIC90 [8]: 1 µg/mL (≈ 2.35 µM)
MIC50 (Lactococcus lactis): 1 µg/mL (≈ 2.35 µM)
MIC90 (Lactococcus lactis): 4 µg/mL (≈ 9.41 µM)
MIC50 [9]: 0.06 µg/mL (≈ 0.141 µM)
MIC90 [9]: > 8 µg/mL
MIC50 (Mammaliicoccus sciuri): 0.06 µg/mL (≈ 0.141 µM)
MIC90 (Mammaliicoccus sciuri): 1 µg/mL (≈ 2.35 µM)
MIC50 [10]: 0.06 µg/mL (≈ 0.141 µM)
MIC90 [10]: 1 µg/mL (≈ 2.35 µM)
MIC50 (Staphylococcus aureus [11]): 0.12 µg/mL (≈ 0.282 µM)
MIC90 (Staphylococcus aureus [11]): > 16 µg/mL
MIC50 (Aerococcus viridans): 1 µg/mL (≈ 2.35 µM)
MIC90 (Aerococcus viridans): 4 µg/mL (≈ 9.41 µM)
MIC50 (Staphylococcus cohnii): 0.06 µg/mL (≈ 0.141 µM)
MIC90 (Staphylococcus cohnii): 1 µg/mL (≈ 2.35 µM)
MIC50 (Enterococcus faecalis): 16 µg/mL (≈ 37.6 µM)
MIC90 (Enterococcus faecalis): > 8 µg/mL
